Measurements as given in US12398120B2, “Substituted hydantoinamides as ADAMTS7 antagonists” (BAYER AKTIENGESELLSCHAFT, priority 2019, dated 2025).

Biological target: ADAMTS4 (Homo sapiens (Human), UniProt O75173)
Experiment: Selectivity assay for ADAMTS-7 modulators: ADAMTS4 (FRET substrate)
Type: biochemical
Conditions: ADAMTS4 (R&D 4307-AD) 50 nM, substrate Dabcyl-EEVKAKVQPY-Glu(Edans)-NH2 1 μM, 120 min, 32° C.
Outline: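 Activity read as rising fluorescence after a FRET substrate is cleaved by human ADAMTS4, with reactions started by substrate addition to wells holding compound or DMSO. Percent inhibition plotted against concentration gave IC50.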

Chain of ADAMTS4 (O75173 213-685): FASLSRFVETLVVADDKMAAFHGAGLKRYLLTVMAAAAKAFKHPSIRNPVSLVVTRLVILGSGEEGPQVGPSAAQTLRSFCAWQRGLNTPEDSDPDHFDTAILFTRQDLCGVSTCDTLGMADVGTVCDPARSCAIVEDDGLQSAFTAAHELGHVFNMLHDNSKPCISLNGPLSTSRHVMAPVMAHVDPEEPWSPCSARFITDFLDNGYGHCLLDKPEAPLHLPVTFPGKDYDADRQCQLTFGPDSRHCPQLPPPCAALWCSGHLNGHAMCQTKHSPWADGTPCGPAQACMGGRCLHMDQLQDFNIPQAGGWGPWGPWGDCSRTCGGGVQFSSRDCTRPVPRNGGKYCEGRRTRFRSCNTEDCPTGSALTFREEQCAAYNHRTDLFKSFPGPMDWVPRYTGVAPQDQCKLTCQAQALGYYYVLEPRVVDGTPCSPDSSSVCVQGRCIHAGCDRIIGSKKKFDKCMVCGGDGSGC

| SMILES | IC50 [µM] |
| --- | --- |
| O=C1NC(=O)C(CNC(=O)c2ccccc2-c2ccc(C(F)(F)F)cc2)(c2cscn2)N1 (stereo not drawn) [Example 197, Ent-N-{[2,5-Dioxo-4-(1,3-Thiazol-4-Yl)Imidazolidin-4-Yl]Methyl}-4′-(Trifluoromethyl)[Biphenyl]-2-Carboxamide] | 13 |
| O=C1NC(=O)C(CNC(=O)c2ccc(F)cc2-c2ccc(C(F)(F)F)cc2)(c2cscn2)N1 (stereo not drawn) [Example 199, Ent-N-{[2,5-Dioxo-4-(1,3-Thiazol-4-Yl)Imidazolidin-4-Yl]Methyl}-5-Fluoro-4′-(Trifluoromethyl)[Biphenyl]-2-Carboxamide] | 16 |
| Cc1ccc(-c2ccccc2C(=O)NCC2(c3nccs3)NC(=O)NC2=O)cc1 (stereo not drawn) [Example 201, Ent-N-{[2,5-Dioxo-4-(1,3-Thiazol-2-Yl)Imidazolidin-4-Yl]Methyl}-4′-Methyl[Biphenyl]-2-Carboxamide] | 8.1 |
| Cc1ccc(C(=O)NCC2(C(C)C)NC(=O)NC2=O)c(-c2ccc(C(F)(F)F)cc2)c1 (stereo not drawn) [Example 203, Ent-N-[(4-Isopropyl-2,5-Dioxoimidazolidin-4-Yl)Methyl]-5-Methyl-4′-(Trifluoromethyl)[Biphenyl]-2-Carboxamide] | 46 |
| Cc1ccc(-c2ccccc2C(=O)NCC2(C(C)C)NC(=O)NC2=O)cc1 (stereo not drawn) [Example 205, Ent-N-[(4-Isopropyl-2,5-Dioxoimidazolidin-4-Yl)Methyl]-4′-Methyl[Biphenyl]-2-Carboxamide] | 12 |
| CC(C)C1(CNC(=O)c2ccccc2-c2ccc(C(F)(F)F)cc2)NC(=O)NC1=O (stereo not drawn) [Example 209, Ent-N-[(4-Isopropyl-2,5-Dioxoimidazolidin-4-Yl)Methyl]-4′-(Trifluoromethyl)[Biphenyl]-2-Carboxamide] | 36.5 |
| CC(C)C1(CNC(=O)c2ccccc2-c2ccc(C(F)(F)F)nc2)NC(=O)NC1=O (stereo not drawn) [Example 211, Ent-N-[(4-Isopropyl-2,5-Dioxoimidazolidin-4-Yl)Methyl]-2-[6-(Trifluoromethyl)Pyridin-3-Yl]Benzamide] | 28 |
| Cc1ccc(-c2cc(Cl)ccc2C(=O)NC[C@@]2(C3CC3)NC(=O)NC2=O)cc1 [Example 215, 5-Chloro-N-{[(4R)-4-Cyclopropyl-2,5-Dioxoimidazolidin-4-Yl]Methyl}-4′-Methyl[Biphenyl]-2-Carboxamide] | 3.5 |
| O=C1NC(=O)[C@](CNC(=O)c2ccc(Cl)cc2-c2ccc(C(F)(F)F)cc2)(C2CC2)N1 [Example 216, 5-Chloro-N-{[(4R)-4-Cyclopropyl-2,5-Dioxoimidazolidin-4-Yl]Methyl}-4′-(Trifluoromethyl)[1,1′-Biphenyl]-2-Carboxamide] | 9.1 |
| Cc1ccc(C(=O)NC[C@@]2(C3CC3)NC(=O)NC2=O)c(-c2ccc(C(F)(F)F)cc2)c1 [Example 218, N-{[(4R)-4-Cyclopropyl-2,5-Dioxoimidazolidin-4-Yl]Methyl}-5-Methyl-4′-(Trifluoromethyl)[Biphenyl]-2-Carboxamide] | 4 |
| Cc1ccc(-c2cccc(Cl)c2C(=O)NC[C@@]2(C3CC3)NC(=O)NC2=O)cc1 [Example 222, 3-Chloro-N-{[(4R)-4-Cyclopropyl-2,5-Dioxoimidazolidin-4-Yl]Methyl}-4′-Methyl[1,1′-Biphenyl]-2-Carboxamide] | 3 |
| Cc1ccc(-c2cccc(F)c2C(=O)NC[C@@]2(C3CC3)NC(=O)NC2=O)cc1 [Example 229, N-{[(4R)-4-Cyclopropyl-2,5-Dioxoimidazolidin-4-Yl]Methyl}-3-Fluoro-4′-Methyl[1,1′-Biphenyl]-2-Carboxamide] | 20 |
| O=C1NC(=O)[C@](CNC(=O)c2c(F)cccc2-c2ccc(C(F)(F)F)cc2)(C2CC2)N1 [Example 230, N-{[(4R)-4-Cyclopropyl-2,5-Dioxoimidazolidin-4-Yl]Methyl}-3-Fluoro-4′-(Trifluoromethyl)[1,1′-Biphenyl]-2-Carboxamide] | 33 |
| O=C1NC(=O)[C@](CNC(=O)c2c(Cl)cccc2-c2ccc(Cl)cc2)(C2CC2)N1 [Example 231, 3,4′-Dichloro-N-{[(4R)-4-Cyclopropyl-2,5-Dioxoimidazoidin-4-Yl]Methyl}[1,1′-Biphenyl]-2-Carboxamide] | 5.2 |
| O=C1NC(=O)[C@](CNC(=O)c2ccc(Cl)cc2-c2ccc(Cl)cc2)(C2CC2)N1 [Example 232, 4′,5-Dichloro-N-{[(4R)-4-Cyclopropyl-2,5-Dioxoimidazolidin-4-Yl]Methyl}[1,1′-Biphenyl]-2-Carboxamide] | 3.7 |
| O=C1NC(=O)[C@](CNC(=O)c2cc(F)ccc2-c2ccc(Cl)cc2)(C2CC2)N1 [Example 233, 4′-Chloro-N-{[(4R)-4-Cyclopropyl-2,5-Dioxoimidazolidin-4-Yl]Methyl}-4-Fluoro[1,1′-Biphenyl]-2-Carboxamide] | 6.5 |
| O=C1NC(=O)[C@](CNC(=O)c2cc(F)ccc2-c2ccc(Cl)c(Cl)c2)(C2CC2)N1 [Example 234, 3′,4′-Dichloro-N-{[(4R)-4-Cyclopropyl-2,5-Dioxoimidazolidin-4-Yl]Methyl}-4-Fluoro[1,1′-Biphenyl]-2-Carboxamide] | 16 |
| O=C1NC(=O)[C@](CNC(=O)c2cccc(F)c2-c2ccc(C(F)(F)F)cc2)(C2CC2)N1 [Example 235, N-{[(4R)-4-Cyclopropyl-2,5-Dioxoimidazolidin-4-Yl]Methyl}-6-Fluoro-4′-(Trifluoromethyl)[1,1′-Biphenyl]-2-Carboxamide] | 7.83 |
| Cc1ccc(C(=O)NCC2(C3CCC3)NC(=O)NC2=O)c(-c2ccc(C(F)(F)F)cc2)c1 (stereo not drawn) [Example 238, Ent-N-[(4-Cyclobutyl-2,5-Dioxoimidazolidin-4-Yl)Methyl]-5-Methyl-4′-(Trifluoromethyl)[Biphenyl]-2-Carboxamide] | 2 |
| O=C1NC(=O)C(CNC(=O)c2ccc(F)cc2-c2ccc(C(F)(F)F)cc2)(C2CCC2)N1 (stereo not drawn) [Example 239, Ent-N-[(4-Cyclobutyl-2,5-Dioxoimidazolidin-4-Yl)Methyl]-5-Fluoro-4′-(Trifluoromethyl)[Biphenyl]-2-Carboxamide] | > 50 |
| O=C1NC(=O)C(CNC(=O)c2ccccc2-c2ccc(C(F)(F)F)cc2)(c2ncccc2C(F)(F)F)N1 (stereo not drawn) [Example 244, Ent-N-({2,5-Dioxo-4-[3-(Trifluoromethyl)Pyridin-2-Yl]Imidazolidin-4-Yl}Methyl)-4′-(Trifluoromethyl)[Biphenyl]-2-Carboxamide] | 10 |
| O=C1NC(=O)C(CNC(=O)c2ccccc2-c2ccc(C(F)(F)F)cc2)(C2CC(F)(F)C2)N1 (stereo not drawn) [Example 248, Ent-N-{[4-(3,3-Difluorocyclobutyl)-2,5-Dioxoimidazolidin-4-Yl]Methyl}-4′-(Trifluoromethyl)[Biphenyl]-2-Carboxamide] | > 50 |

Next, values leading:

| IC50 [µM] | SMILES |
| --- | --- |
| 16 | CS(=O)(=O)c1ccc(-c2ccccc2C(=O)NC[C@@]2(C3CC3)NC(=O)NC2=O)cc1 [Example 217, N-{[(4R)-4-Cyclopropyl-2,5-Dioxoimidazolidin-4-Yl]Methyl}-4′-(Methanesulfonyl)[1,1′-Biphenyl]-2-Carboxamide] |
| 2.8 | Cc1ccc(-c2ccc(F)cc2C(=O)NC[C@@]2(C3CC3)NC(=O)NC2=O)cc1 [Example 219, N-{[(4R)-4-Cyclopropyl-2,5-Dioxoimidazolidin-4-Yl]Methyl}-4-Fluoro-4-Methyl[Biphenyl]-2-Carboxamide] |
| 7.8 | O=C1NC(=O)[C@](CNC(=O)c2ccccc2-c2ccc(Cl)cc2)(C2CC2)N1 [Example 220, 4′-Chloro-N-{[(4R)-4-Cyclopropyl-2,5-Dioxoimidazolidin-4-Yl]Methyl}[1,1′-Biphenyl]-2-Carboxamide] |
| 8.1 | Cc1ccc(-c2ccccc2C(=O)NC[C@@]2(C3CC3)NC(=O)NC2=O)cc1F [Example 221, N-{[(4R)-4-Cyclopropyl-2,5-Dioxoimidazolidin-4-Yl]Methyl}-3′-Fluoro-4′-Methyl[1,1′-Biphenyl]-2-Carboxamide] |
| 26 | N#Cc1ccc(-c2ccccc2C(=O)NC[C@@]2(C3CC3)NC(=O)NC2=O)cc1 [Example 223, 4′-Cyano-N-{[(4R)-4-Cyclopropyl-2,5-Dioxoimidazolidin-4-Yl]Methyl}[1,1′-Biphenyl]-2-Carboxamide] |
| 19 | O=C1NC(=O)[C@](CNC(=O)c2ccccc2-c2ccc(C(F)(F)F)nc2)(C2CC2)N1 [Example 224, N-{[(4R)-4-Cyclopropyl-2,5-Dioxoimidazolidin-4-Yl]Methyl}-2-[6-(Trifluoromethyl)Pyridin-3-Yl]Benzamide] |
| 21 | Cc1ccc(-c2ccccc2C(=O)NC[C@@]2(C3CC3)NC(=O)NC2=O)cc1Cl [Example 225, 3′-Chloro-N-{[(4R)-4-Cyclopropyl-2,5-Dioxoimidazolidin-4-Yl]Methyl}-4′-Methyl[1,1′-Biphenyl]-2-Carboxamide] |
| > 50 | O=C1NC(=O)[C@](CNC(=O)c2ccccc2-c2ccc(C(F)(F)F)c(Cl)c2)(C2CC2)N1 [Example 226, 3′-Chloro-N-{[(4R)-4-Cyclopropyl-2,5-Dioxoimidazolidin-4-Yl]Methyl}-4′-(Trifluoromethyl)[1,1′-Biphenyl]-2-Carboxamide] |
| 41 | O=C1NC(=O)[C@](CNC(=O)c2ccccc2-c2ccc(Cl)c(Cl)c2)(C2CC2)N1 [Example 227, 3′,4′-Dichloro-N-{[(4R)-4-Cyclopropyl-2,5-Dioxoimidazolidin-4-Yl]Methyl}[1,1′-Biphenyl]-2-Carboxamide] |
| 20 | Cc1ccc(-c2ccccc2C(=O)NC[C@@]2(C3CC3)NC(=O)NC2=O)cn1 [Example 228, N-{[(4R)-4-Cyclopropyl-2,5-Dioxoimidazolidin-4-Yl]Methyl}-2-(6-Methylpyridin-3-Yl)Benzamide] |
| 15 | Cc1ccc(-c2ccccc2C(=O)NCC2(C3CCC3)NC(=O)NC2=O)cc1 (stereo not drawn) [Example 236, Ent-N-[(4-Cyclobutyl-2,5-Dioxoimidazolidin-4-Yl)Methyl]-4′-Methyl[Biphenyl]-2-Carboxamide] |
| > 50 | O=C1NC(=O)C(CNC(=O)c2ccccc2-c2ccc(C(F)(F)F)cc2)(C2CCC2)N1 (stereo not drawn) [Example 237, Ent-N-[(4-Cyclobutyl-2,5-Dioxoimidazolidin-4-Yl)Methyl]-4′-(Trifluoromethyl)[Biphenyl]-2-Carboxamide] |
